Test results published in patent US20230407243A1, “GENETIC PLATFORM TO INVESTIGATE THE FUNCTIONS OF BACTERIAL DRUG EFFLUX PUMPS” (priority 2022, published 2023).
Read-outs that look alike come from different tables or passages of the source.

Assays:
Assay type in all cases: cell-based, Escherichia coli
[1] = tested on: EKO-35 porinated strain expressing acrF (AcrEF); test: Checkerboard synergy (FICI), porinated strain
Summary of the method: (§1)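 Checkerboard broth microdilution per CLSI in MHB II, inocula by colony resuspension; MIC taken as lowest concentration with no growth by OD600. FICI = (CA/MICA)+(CB/MICB), drug A being PAβN or NMP and drug B the antibiotic; synergy <0.5, additive >0.5–1.0, indifferent >1.0–2.0, antagonism >2.0.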

wild-type K-12-Pore = test: Checkerboard synergy (FICI), porinated strain
Summary of the method: as §1

[2] = tested on: EKO-35 strains producing different efflux pumps (EKO-35 araC::X); test: Checkerboard synergy (FICI) of PAβN or NMP with antibiotics; details: for MICb Alone: antibiotic alone
Method: (§2) Synergy measurement using checkerboard analysis was performed in 96-well microtiter plates using the microdilution broth method, according to CLSI guidelines (Patel J. B., 2015). The cell inocula were prepared using the colony resuspension method. The minimum inhibitory concentrations (MICs) were defined as the lowest concentration that provided no growth, as determined by measurement of the OD600nm using a Synergy H1 microplate reader (BioTek). Susceptibility testing was performed in MHB II with a final volume of 100 μL. PAI3N (Bachem Americas) was solubilized in MHB II. […] Solvent controls were included in each plate.
(§3) The Fractional Inhibitory Concentration Index (FICI) was used to assess the synergy of PAI3N in combination with different antibiotics. The FICI represents the ΣFIC of each drug. The FICI for each drug was calculated using the following formula: FICI=FICA+FICB=(CA/MICA)+(CB/MICB). Where MICA and MICB are the MICs of drugs A (PAI3N/NMP) and B (antibiotic) alone, and CA and CB are the MICs of the drugs in combination. The effects of PAβN or NMP in combination with antibiotics were classified as: synergistic (FICI<0.5), additive (FICI>0.5-1.0), indifferent (FICI>1.0-2.0), and antagonistic (FICI>2.0). Fold increases in resistance provided by efflux pumps were calculated by dividing the MIC values of strains expressing efflux pumps by the MIC value of EKO-35.

ΔtolC-Pore = tested on: ΔtolC-Pore
Method: as §2, §3

ΔtolC = tested on: ΔtolC
Method: as §2, §3

EKO-35 = tested on: EKO-35
Method: as §2, §3

wild-type E. coli K-12 = tested on: wild-type E. coli K-12
Method: as §2, §3

EKO-35 acrBD408A = tested on: EKO-35 acrBD408A
Method: as §2, §3

[3] = strain EKO-35 acrEF Pore, NMP + antibiotic
[4] = strain K-12 Pore, NMP + antibiotic
[5] = strain K-12 Pore, antibiotic alone
[6] = strain K-12 Pore, antibiotic in combination with NMP
[7] = strain EKO-35 acrB, NMP + antibiotic
[8] = strain EKO-35 acrB, antibiotic in combination with NMP
[9] = strain EKO-35 acrEF, NMP + antibiotic
[10] = strain ΔtolC Pore, NMP + antibiotic
[11] = strain ΔtolC Pore, antibiotic alone
[12] = strain ΔtolC Pore, antibiotic in combination with NMP
[13] = strain ΔtolC, antibiotic in combination with NMP
[14] = strain EKO-35, NMP + antibiotic
[15] = strain EKO-35, antibiotic alone
[16] = strain EKO-35, antibiotic in combination with NMP
[17] = strain K-12, antibiotic in combination with NMP
[18] = EKO-35 acrBD408A, NMP + antibiotic
[19] = strain EKO-35 acrBD408A, NMP + antibiotic
[20] = strain EKO-35 acrBD408A, antibiotic alone
[21] = EKO-35 acrBD408A, PAβN + antibiotic

CC[n+]1c(-c2ccccc2)c2cc(N)ccc2c2ccc(N)cc21 [ethidium bromide]
FICI ([1]; EKO-35 acrEF Pore, NMP + antibiotic): 0.500 | Effect [1, 3]: Synergistic (Synergy (FICI ≤0.5)) | FICI [1, 3]: 0.500 | MICb Alone ([1]; strain EKO-35 acrEF Pore, antibiotic alone): 2 µg/mL | MICb Combined ([1]; strain EKO-35 acrEF Pore, antibiotic in combination with NMP): 0.5 µg/mL | Effect (wild-type K-12-Pore; [4]): Synergistic (Synergy (FICI ≤0.5)) | MICb Alone (wild-type K-12-Pore; [5]): 250 µg/mL | MICb Combined (wild-type K-12-Pore; [6]): 31.3 µg/mL | FICI ([2]; EKO-35 acrB, NMP + antibiotic): 0.253 | FICI ([2]; EKO-35 acrEF, NMP + antibiotic): 0.500 | Effect [2, 7]: Synergistic (Synergy (FICI ≤0.5)) | FICI [2, 7]: 0.253 | MICb Alone ([2]; strain EKO-35 acrB): 15.6 µg/mL | MICb Combined [2, 8]: 2 µg/mL | Effect [2, 9]: Synergistic (Synergy (FICI ≤0.5)) | FICI [2, 9]: 0.500 | MICb Alone ([2]; strain EKO-35 acrEF): 2 µg/mL | MICb Combined ([2]; strain EKO-35 acrEF, antibiotic in combination with NMP): 0.5 µg/mL | Effect (ΔtolC-Pore; [10]): Additive (additive (FICI >0.5-1.0)) | FICI (ΔtolC-Pore; [10]): 0.500 | MICb Alone (ΔtolC-Pore; [11]): 1.95 µg/mL | MICb Combined (ΔtolC-Pore; [12]): 0.488 µg/mL | FICI (ΔtolC-Pore; ΔtolC Pore, NMP + antibiotic): 0.500 | Effect (ΔtolC; strain ΔtolC, NMP + antibiotic): Synergistic (Synergy (FICI ≤0.5)) | FICI (ΔtolC; strain ΔtolC, NMP + antibiotic): 0.281 | MICb Alone (ΔtolC; strain ΔtolC, antibiotic alone): 7.81 µg/mL | MICb Combined (ΔtolC; [13]): 1.95 µg/mL | FICI (ΔtolC; ΔtolC, NMP + antibiotic): 0.281 | FICI (EKO-35; EKO-35, NMP + antibiotic): 2.000 | Effect (EKO-35; [14]): — (indifferent (FICI >1.0)) | FICI (EKO-35; [14]): 2.000 | MICb Alone (EKO-35; [15]): 0.244 µg/mL | MICb Combined (EKO-35; [16]): 0.244 µg/mL | FICI (wild-type E. coli K-12; K-12, NMP + antibiotic): 0.375 | Effect (wild-type E. coli K-12; strain K-12, NMP + antibiotic): Synergistic (Synergy (FICI ≤0.5)) | FICI (wild-type E. coli K-12; strain K-12, NMP + antibiotic): 0.375 | MICb Alone (wild-type E. coli K-12; strain K-12, antibiotic alone): 500 µg/mL | MICb Combined (wild-type E. coli K-12; [17]): 125 µg/mL | FICI (EKO-35 acrBD408A; [18]): 0.750 | Effect (EKO-35 acrBD408A; [19]): Additive (additive (FICI >0.5-1.0)) | FICI (EKO-35 acrBD408A; [19]): 0.750 | MICb Alone (EKO-35 acrBD408A; [20]): 0.488 µg/mL

CC(=O)NC[C@H]1CN(c2ccc(N3CCOCC3)c(F)c2)C(=O)O1 [linezolid]
Effect (wild-type K-12-Pore; K-12 Pore, NMP + antibiotic): Synergistic | Effect (wild-type K-12-Pore; K-12 Pore, PAβN + antibiotic): Synergistic | FICI (wild-type K-12-Pore; K-12 Pore, PAβN + antibiotic): 0.250 | MICb Alone (wild-type K-12-Pore; K-12 Pore, antibiotic alone (PAβN checkerboard)): 128 µg/mL | MICb Combined (wild-type K-12-Pore; K-12 Pore, antibiotic in combination with PAβN): 16 µg/mL | Effect (wild-type K-12-Pore; [4]): Synergistic (Synergy (FICI ≤0.5)) | MICb Alone (wild-type K-12-Pore; [5]): 128 µg/mL | MICb Combined (wild-type K-12-Pore; [6]): 32 µg/mL | Effect ([2]; EKO-35 acrB, NMP + antibiotic): Synergistic | FICI ([2]; EKO-35 acrB, NMP + antibiotic): 0.281 | Effect ([2]; EKO-35 acrB, PAβN + antibiotic): Synergistic | MICb Combined ([2]; EKO-35 acrB, antibiotic in combination with PAβN): 16 µg/mL | Effect [2, 7]: Synergistic (Synergy (FICI ≤0.5)) | FICI [2, 7]: 0.281 | MICb Combined [2, 8]: 8 µg/mL | Effect (ΔtolC-Pore; [10]): — (indifferent (FICI >1.0)) | FICI (ΔtolC-Pore; [10]): 1.000 | MICb Alone (ΔtolC-Pore; [11]): 8 µg/mL | MICb Combined (ΔtolC-Pore; [12]): 4 µg/mL | FICI (ΔtolC-Pore; ΔtolC Pore, NMP + antibiotic): 1.000 | Effect (ΔtolC-Pore; ΔtolC Pore, PAβN + antibiotic): Additive | FICI (ΔtolC-Pore; ΔtolC Pore, PAβN + antibiotic): 0.563 | MICb Alone (ΔtolC-Pore; ΔtolC Pore, antibiotic alone (PAβN checkerboard)): 8 µg/mL | MICb Combined (ΔtolC-Pore; ΔtolC Pore, antibiotic in combination with PAβN): 0.5 µg/mL | Effect (ΔtolC; strain ΔtolC, NMP + antibiotic): — (indifferent (FICI >1.0)) | FICI (ΔtolC; strain ΔtolC, NMP + antibiotic): 2.000 | MICb Alone (ΔtolC; strain ΔtolC, antibiotic alone): 8 µg/mL | MICb Combined (ΔtolC; [13]): 8 µg/mL | FICI (ΔtolC; ΔtolC, NMP + antibiotic): 2.000 | Effect (ΔtolC; ΔtolC, PAβN + antibiotic): Additive | FICI (ΔtolC; ΔtolC, PAβN + antibiotic): 0.750 | MICb Alone (ΔtolC; ΔtolC, antibiotic alone (PAβN checkerboard)): 8 µg/mL | MICb Combined (ΔtolC; ΔtolC, antibiotic in combination with PAβN): 2 µg/mL | Effect (EKO-35; EKO-35, NMP + antibiotic): Additive | FICI (EKO-35; EKO-35, NMP + antibiotic): 0.531 | Effect (EKO-35; EKO-35, PAβN + antibiotic): Additive | FICI (EKO-35; EKO-35, PAβN + antibiotic): 0.750 | MICb Alone (EKO-35; EKO-35, antibiotic alone (PAβN checkerboard)): 16 µg/mL | MICb Combined (EKO-35; EKO-35, antibiotic in combination with PAβN): 4 µg/mL | interaction of PAβN in combination with the labelled antibiotic (FICI) (EKO-35; efflux-deficient strains EKO-35, EKO-35 acrBD408A, ΔtolC): not synergistic | Effect (EKO-35; [14]): Additive (additive (FICI >0.5-1.0)) | FICI (EKO-35; [14]): 0.531 | MICb Alone (EKO-35; [15]): 16 µg/mL | MICb Combined (EKO-35; [16]): 8 µg/mL | Effect (wild-type E. coli K-12; K-12, NMP + antibiotic): Synergistic | FICI (wild-type E. coli K-12; K-12, NMP + antibiotic): 0.375 | Effect (wild-type E. coli K-12; K-12, PAβN + antibiotic): Synergistic | FICI (wild-type E. coli K-12; K-12, PAβN + antibiotic): 0.125 | MICb Alone (wild-type E. coli K-12; K-12, antibiotic alone (PAβN checkerboard)): 256 µg/mL | MICb Combined (wild-type E. coli K-12; K-12, antibiotic in combination with PAβN): 16 µg/mL | Effect (wild-type E. coli K-12; strain K-12, NMP + antibiotic): Synergistic (Synergy (FICI ≤0.5)) | FICI (wild-type E. coli K-12; strain K-12, NMP + antibiotic): 0.375 | MICb Alone (wild-type E. coli K-12; strain K-12, antibiotic alone): 256 µg/mL | MICb Combined (wild-type E. coli K-12; [17]): 32 µg/mL | Effect (EKO-35 acrBD408A; [18]): Additive | FICI (EKO-35 acrBD408A; [18]): 0.516 | Effect (EKO-35 acrBD408A; [21]): Additive | FICI (EKO-35 acrBD408A; [21]): 0.750 | MICb Alone (EKO-35 acrBD408A; EKO-35 acrBD408A, antibiotic alone (PAβN checkerboard)): 16 µg/mL | MICb Combined (EKO-35 acrBD408A; EKO-35 acrBD408A, antibiotic in combination with PAβN): 4 µg/mL | Effect (EKO-35 acrBD408A; [19]): Additive (additive (FICI >0.5-1.0)) | FICI (EKO-35 acrBD408A; [19]): 0.516 | MICb Alone (EKO-35 acrBD408A; [20]): 16 µg/mL | MICb Combined (EKO-35 acrBD408A; strain EKO-35 acrBD408A, antibiotic in combination with NMP): 8 µg/mL
